Holding throughout (assay type): in vivo
Assay [1] concerns intact cells in hippocampus and cortex. As to the kind of experiment: Ex.3 neuroprotective HIE rat model: intact cell counting. The protocol:
Paraformaldehyde-fixed paraffin embedded samples of the removed brains were coronally sectioned at the same level of the hippocampus region in accordance to the Paxinos rat brain atlas (Paxinos and Watson 2007. In: The rat brain in stereotaxic coordinates, 6th edition). Thickness of sections was 5 μm. Hematoxylin-eosin staining was performed. Briefly, sections were deparaffinized in xylene and rehydrated in graded ethanol concentrations before staining. Slides were stained with hematoxylin, rinsed for a few seconds in water, then placed in 1% eosin and washed, dehydrated, and coverslipped.
Intact cell counting was performed on hematoxylin-eosin-stained sections of the rat pups brains at magnification 400× in 3 fields of the respective brain area. Countings were performed in cortex and hippocampus (regions: dentate gyrus (DG), subgranular zone (SGZ), cornu ammonis (CA1, CA2/CA3)). The sections were analyzed with the aid of a microscope (Olympus BX51, Olympus, Tokyo, Japan), an image scanner (DotSlide Digital Virtual Microscopy, Olympus, Germany) and ImageJ software (NIH, US).
Intact cells are uninjured. Injured cells are characterized by a pale eosinophilic staining along with non-uniform nuclear densities-shrunken, condensed, or pale and enlarged.
(§1) Newborn rat pups were assigned to one of the following 6 groups from postnatal day 4: Sham group (n=24), Vehicle group (n=14), E4 1 mg/kg/per day group (n=11), E4 5 mg/kg/per day group (n=14), E4 10 mg/kg/per day group (n=14), or E4 50 mg/kg/per day group (n=19). From postnatal day 4, rat pups were intraperitoneally injected either vehicle (Vehicle group) or E4 (1, 5, 10, or 50 mg/kg/per day in accordance to the E4 group assignment) or neither vehicle nor E4 (Sham group). At day 7, 30 minutes after last injection, animals were anesthetized with isoflurane (induction, 3.0%; maintenance, 1.5%), and the rat pups from Vehicle and E4 groups passed through surgery encompassing left common carotid artery double ligation and cut. After the procedure, the pups were returned to their dams and were allowed to recover for 1 hour. The pups were then placed in the humidified hypoxic in vivo cabinet (CoyLab, Grass Lake, Mich., USA). Hypoxia was produced by the inhalation of 11%-8% of oxygen balanced by nitrogen at decreased concentration of oxygen for 20 minutes, followed by inhalation of 8% oxygen and 92% nitrogen at constant concentration for 35 minutes. All the manipulations were performed at 37° C. The Sham group went through similar procedures without left common carotid artery ligation followed by hypoxia nor injection. Rat pups recovered with their dams and reared normally until being sacrificed at postnatal day 14.

The test system of assay [2] is glial fibrillary acidic protein (GFAP). As to the kind of experiment: Ex.3 neuroprotective HIE rat model: blood serum GFAP ELISA. The conditions noted are these: 50 mg/kg E4 ip PND4-7 before HI; PND14. The protocol:
Blood was withdrawn, centrifuged and the serum samples were stored at −80° C.
ELISAs for detecting the brain damage markers S100B protein (Catalog# CSB-E08066r, Cusabio Biotech Co., LTD, China), and glial fibrillary acidic protein (GFAP) (Catalog# E90068Ra, Uscn Life sciences Inc., China) in blood serum samples were performed according to the manufacturers' recommendations.
as §1, with “Hypoxia was produced by the inhalation of 11%-8% of oxygen balanced by nitrogen at decreased concentration of oxygen for 20 minutes, followed by inhalation of 8% oxygen and 92% nitrogen at constant concentration for 35 minutes. All the manipulations were performed at 37° C. The Sham group went through similar procedures without left common carotid artery ligation followed by hypoxia nor injection. Rat pups recovered with their dams and reared normally until being sacrificed at postnatal day 14.” left out
(In general: In an ELISA, binding on a coated surface is turned into a signal by an enzyme label.)

Another assay relates to doublecortin (DCX). As to the kind of experiment: Ex.8 neuroprotective HIE rat model: doublecortin staining. Conditions: 5 mg/kg/day E4, DG. The protocol:
Newborn rat pups were assigned to one of the following 14 groups from postnatal day 4 (FIG. 23(A)): Sham group (n=12), Vehicle group (n=17), 5 mg/kg/day E4 (n=13), 10 mg/kg/day E4 (n=10), 5 mg/kg/day E4+1.6 mg/kg/day PROG (n=11), 10 mg/kg/day E4+1.6 mg/kg/day PROG (n=11), 5 mg/kg/day E4+16 mg/kg/day PROG (n=11), 10 mg/kg/day E4+16 mg/kg/day PROG (n=11), 5 mg/kg/day E4+136 ng//kg/day E2 (n=11), 10 mg/kg/day E4+136 ng/kg/day E2 (n=11), 5 mg/kg/day E4+1.6 mg/kg/day PROG+136 ng/kg/day (n=13) E2, 10 mg/kg/day E4+1.6 mg/kg/day PROG+136 ng/kg/day E2 (n=16), 5 mg/kg/day E4+16 mg/kg/day PROG+136 ng/kg/day E2 (n=11), 10 mg/kg/day E4+16 mg/kg/day PROG+136 ng/kg/day groups (n=13). Intraperitoneal injections of the pups from study groups were performed from postnatal day 4 to postnatal day 7 inclusively. […]
The sections were heated in 10 mmol/L citrate buffer (pH 6.0) at 100° C. for 10 minutes. […] Samples were analyzed with the aid of a microscope (Olympus Vanox AHBT3, Olympus), and the ImageJ software 15 (NIH). The percentage of positively stained cells was quantified as a sum of positively stained either DCX or VEGF cells divided by the total number of DAPI positive cells expressed in percentage.

Take `C[C@]12CC[C@@H]3c4ccc(O)cc4CC[C@H]3[C@@H]1[C@@H](O)[C@@H](O)[C@@H]2O` [E4, 1,3,5(10)-estratrien-3,15α,16α,17β-tetrol]: the “number of intact cells per visual field” value in assay [1] (1 mg/kg E4 ip PND4-7 before HI, CA1) turned out to be 43.2±2.435; in assay [1] (1 mg/kg E4 ip PND4-7 before HI, CA2/CA3) it was 32.8±2.808; in assay [1] (1 mg/kg E4 ip PND4-7 before HI, SGZ), 35.6±2.75; in assay [1] (5 mg/kg E4 ip PND4-7 before HI, DG) it was 121.0±8.098; in assay [1] (5 mg/kg E4 ip PND4-7 before HI, SGZ), 42.846±3.884; in assay [1] (10 mg/kg E4 ip PND4-7 before HI, CA1), 57.4±4.566. For the same compound, the “number of intact cells per visual field” value in assay [1] (10 mg/kg E4 ip PND4-7 before HI, SGZ) came out at 47.6±4.672; in assay [1] (50 mg/kg E4 ip PND4-7 before HI, CA2/CA3) it was 53.0±4.7; in assay [1] (50 mg/kg E4 ip PND4-7 before HI, SGZ), 30.714±3.615; in assay [1] (50 mg/kg E4 ip PND4-7 before HI, cortex), 76.286±3.962. For the same compound, the “concentration of GFAP in blood serum” value in assay [2] amounted to 300.388 ± 31.232 pg/mL. In addition, in the assay with doublecortin (DCX), the “percentage of DCX positively stained cells” value worked out at 60.29±5.66%.

These data come from patent US9808470B2, “Estrogenic components for use in the treatment of neurological disorders” (UNIVERSITE DE LIEGE, priority 2012, dated 2017).
